Test results: US8735375B2, “Therapeutic compositions” (Leo Laboratories Limited, priority 2005, dated 2014)

What was measured:
Format in all cases: physicochemical
[1] = Preliminary stability of I3A in receiver fluid 20% v/v ethanol/citrate buffer (pH 3.0); conditions: 37° C., after 18 h
Description: The receiver fluid employed to try and maintain sink conditions was 20% v/v ethanol/citrate buffer (pH 3.0) and this was incorporated into the Franz cell and stirred constantly with a magnetic stirrer. Preliminary stability studies were conducted on I3A in 20% v/v ethanol/citrate buffer (pH 3.0) at 37° C. over ca. 18 h. […] For the purpose of the Franz cell study this was considered acceptable.

[2] = Stability of I3A isoforms in the assay solvent systems over 72 h
Description: The stability of […] isoforms 'a', 'b' and 'c' in the three sample systems over 72 h (equivalent to the maximum possible length of time the samples might be held in the autosampler during a long HPLC analytical run) was confirmed as follows. Standards of the three isoforms of […] The standards were then each divided into three equal volumes and placed at 2-8° C., room temperature and 40° C. for 72 h and were then again analysed by HPLC.

[3] = Stability study of I3A in solvents at 4-8° C.; conditions: 14 days
Description: The stability of I3A in various solvents at 4-8° C. was investigated. A stock solution of 1.26 mg of I3A was weighed out and dissolved in 2 ml acetone. This stock solution was used to prepare the stability samples as follows:
Aliquots of 100 μl of stock solution were transferred to individual glass HPLC vials via a Hamilton syringe, with careful rinsing and drying of the syringe between each sample. The samples were dried down by air jet and then 0.5 ml of the appropriate test solvent system added. The solvent systems were tested in triplicate and are listed below:
Blank samples were also prepared in triplicate using 100 μl of acetone in place of the stock solution. The blank samples were then dried down and 0.5 ml acetone added to each vial. The vials were all crimped, sealed with Parafilm® and placed at 4-8° C. for the duration of the stability study. HPLC analysis was performed on the samples on Day 0, Day 1, Day 5 and Day 14 of the stability study. The samples were prepared for the HPLC assay as described below:
The stability samples were removed from 4-8° C. and left at ambient temperature for 30 mins. Aliquots of 100 μl were transferred to fresh glass HPLC vials using a Hamilton syringe, with careful, rinsing and drying of the syringe between each sample. To facilitate drying of the samples, 0.5 ml of acetone was added to each vial and then the samples were dried down by air jet. The samples were reconstituted with 1 ml of acetonitrile and analysed by HPLC using the chromatographic conditions specified above.

[4] = Kinetic solubility of I3A in 20% v/v ethanol/citrate buffer (pH 3.0); conditions: aqueous with cosolvent or surfactant or cyclodextrin, kinetic from dmso stock, 25° C.
[5] = Stability study of I3A in solvents/excipients at room temperature (HPLC ratio of isoform 'b' to 'a' and 'c')
Description: A stability study of I3A in the following solvent/excipients/excipient combinations was performed over 14 days (except where otherwise stated) at room temperature:
A 0.5 mg/ml stock solution of I3A in acetonitrile was prepared. Aliquots of 1.0 ml were transferred to individual glass sample vials by a burette; the solutions were dried by air jet and then 1.0 g of the respective solvent/excipient/excipient combination was added to the vials. On Day 0, Day 5 and Day 14, aliquots of the stability samples were removed for HPLC analysis using the chromatographic conditions described under “Stability in DMSO”, below. Stability was expressed as the ratio of peak ‘b’ to peak ‘a’ (and peak ‘c’ if present), with a high ratio indicating stability in a particular excipient.
The chromatographic conditions employed for the excipients stability study were as follows:
It is assumed that for an excipient in which I3A is not stable, other like excipients will not be suitable.

[6] = Acetonitrile/Citrate buffer (pH 3), 72 h 2-8° C.
[7] = Acetonitrile/Citrate buffer (pH 3), 72 h 40° C.
[8] = Acetonitrile/Citrate buffer (pH 3), 72 h RTP
[9] = Acetonitrile/Citrate buffer (pH 3), Time 0 h
[10] = Acetonitrile/Sodium acetate buffer (pH 4.5), 72 h 2-8° C.
[11] = Acetonitrile/Sodium acetate buffer (pH 4.5), 72 h 40° C.
[12] = Acetonitrile/Sodium acetate buffer (pH 4.5), 72 h RTP
[13] = Acetonitrile/Sodium acetate buffer (pH 4.5), Time 0 h
[14] = I3A in Mineral oil, room temperature, 14 days

For `C/C=C(/C)C(=O)O[C@H]1C(C)=C[C@]23C(=O)[C@H](C=C(CO)[C@@H](O)[C@]12O)[C@H]1[C@@H](C[C@H]3C)C1(C)C` [Formulation I3A, ingenol-3-angelate], the “percentage peak area increase in isoform ‘a’” value [1] was 0.26%, the “% ‘a’” value ([2]; Acetonitrile, 72 h 2-8° C.) was 3.94% and the “% ‘b’” value ([2]; Acetonitrile, 72 h 2-8° C.) was 95.45%. For the same compound, the “% ‘c’” value ([2]; Acetonitrile, 72 h 2-8° C.) was 0%, the “% ‘a’” value ([2]; Acetonitrile, 72 h 40° C.) was 15.52% and the “% ‘b’” value ([2]; Acetonitrile, 72 h 40° C.) was 83.35%. The “% ‘c’” value ([2]; Acetonitrile, 72 h 40° C.) was 0%, the “% ‘a’” value ([2]; Acetonitrile, 72 h RTP) was 5.83% and the “% ‘b’” value ([2]; Acetonitrile, 72 h RTP) was 93.51%. For the same compound, the “% ‘c’” value ([2]; Acetonitrile, 72 h RTP) was 0%, the “% ‘a’” value ([2]; Acetonitrile, Time 0 h) was 0.39% and the “% ‘b’” value ([2]; Acetonitrile, Time 0 h) was 99.27%. For the same compound, the “% ‘c’” value ([2]; Acetonitrile, Time 0 h) was 0%, the “% ‘a’” value [2, 6] was 0.18% and the “% ‘b’” value [2, 6] was 99.49%. The “% ‘c’” value [2, 6] was 0%, the “% ‘a’” value [2, 7] was 0.34% and the “% ‘b’” value [2, 7] was 99.63%. For the same compound, the “% ‘c’” value [2, 7] was 0%, the “% ‘a’” value [2, 8] was 0.13% and the “% ‘b’” value [2, 8] was 99.76%. For the same compound, the “% ‘c’” value [2, 8] was 0%, the “% ‘a’” value [2, 9] was 0.13% and the “% ‘b’” value [2, 9] was 99.64%. The “% ‘c’” value [2, 9] was 0%, the “% ‘a’” value [2, 10] was 0.63% and the “% ‘b’” value [2, 10] was 99.02%. For the same compound, the “% ‘c’” value [2, 10] was 0%, the “% ‘a’” value [2, 11] was 6.35% and the “% ‘b’” value [2, 11] was 93.13%. For the same compound, the “% ‘c’” value [2, 11] was 0%, the “% ‘a’” value [2, 12] was 1.16% and the “% ‘b’” value [2, 12] was 98.41%. The “% ‘c’” value [2, 12] was 0%, the “% ‘a’” value [2, 13] was 0.34% and the “% ‘b’” value [2, 13] was 98.88%. The “% ‘c’” value [2, 13] was 0.01%, the “stability (predominance of peak 'b')” value ([3]; 100% v/v acetone) was “stable” and the “stability (predominance of peak 'b')” value ([3]; 100% v/v acetonitrile) was “stable”. For the same compound, the isomer formation ([3]; protic solvents (methanol, methanol/water, water)) was “formation of isomer ‘a’ and then isomer ‘c’ increases rapidly”, the solubility kinetic [4] was 509.7 ± 3 µg/mL and the “Stable?” value ([5]; I3A in 2-Hydroxypropyl-β-cyclodextrin (Cavasol)/PO4 pH 4.5, room temperature, 14 days) was “√”. The “Stable?” value ([5]; I3A in Acetone, room temperature, 14 days) was “stable and √”, the “Stable?” value ([5]; I3A in Acetonitrile, room temperature, 14 days) was “stable and √” and the “Stable?” value ([5]; I3A in Ammonium buffer pH 4.5, room temperature) was “stable and √”. For the same compound, the Comments ([5]; I3A in Captisol/H2O, room temperature, 7 days study (comment continues: present)) was “Isoforms ‘a’ and ‘c’”, the Comments ([5]; I3A in Cavasol/H2O, room temperature, 14 days) was “Large peak for isoform ‘c’” and the Comments ([5]; I3A in Cavasol/PO4 pH 4.5, room temperature, 14 days) was “Some precipitation of I3A”. For the same compound, the “Stable?” value ([5]; I3A in DMSO, room temperature, 10 days study) was “stable and √”, the Comments ([5]; I3A in Methanol, room temperature, 14 days) was “Isoform ‘a’ forms” and the Comments ([5]; I3A in Methanol/water (70/30), room temperature, 14 days) was “Isoform ‘a’ then ‘c’ form”. For the same compound, the “Stable?” value ([5]; I3A in Miglyol 810, room temperature, 14 days) was “√”, the Comments [5, 14] was “Precipitation of I3A” and the “Stable?” value [5, 14] was “√”. For the same compound, the Comments ([5]; I3A in Oleic acid, room temperature, 14 days (isoform 'a' present, shoulder on 'b', 'c' forming)) was “chromatogram. isoform ‘a’”, the “Stable?” value ([5]; I3A in Phosphate buffer pH 4.5, room temperature, 14 days) was “stable and √” and the Comments ([5]; I3A in Phosphate buffer pH 5.5, room temperature, 14 days) was “Isoform ‘a’ forms”. The Comments ([5]; I3A in Phosphate buffer pH 6.5, room temperature, 14 days) was “Isoform ‘a’ then ‘c’ form”, the “Stable?” value ([5]; I3A in Polyethylene glycol, room temperature, 14 days) was “√” and the Comments ([5]; I3A in Propylene glycol, room temperature, 14 days (comment continues: isoforms)) was “Formation of ‘a’ and ‘c’”. The Comments ([5]; I3A in Sodium hyaluronate/H2O, room temperature, 2 days study) was “Isoform ‘a’ present”, the “Stable?” value ([5]; I3A in Sodium hyaluronate/PO4 pH 4.5, room temperature, 2 days study) was “√” and the “Stable?” value ([5]; I3A in Tween 80/Span 80/H2O, room temperature, 14 days) was “√”. For the same compound, the “Stable?” value ([5]; I3A in Tween 80/Span 80/PO4 pH 4.5, room temperature, 14 days) was “√”, the Comments ([5]; I3A in Water, room temperature, 14 days) was “Isoform ‘a’ then ‘c’ form” and the “Stable?” value ([5]; I3A in β-cyclodextrin sulphobutyl ether (Captisol)/PO4 pH 4.5, room temperature, 7 days study) was “√”.
